# Results published in patent US6939946B2, “Ring modified cyclic peptide analogs” (Eli Lilly and Company, priority 1998, dated 2005).
# Bridge positions count the residues as written; N and C are the ends. Square brackets hold non-standard residues; d marks the D form. Peptide text beside a SMILES is read from it. * marks the point of attachment. ξ: configuration not given here. pTerphenylCO(4''-OnC5H11) = CCCCCOc1ccc(-c2ccc(-c3ccc(C(=O)*)cc3)cc2)cc1; Pro(3S-OH,4S-Me) = C[C@H]1CN[C@H](C(=O)O)[C@H]1O; hTyr(3R-OH) = N[C@H](C(=O)O)[C@H](O)Cc1ccc(O)cc1; Hyp = O=C(O)[C@@H]1C[C@@H](O)CN1; Thr(3ξ) = CC(O)[C@H](N)C(=O)O; Orn = NCCC[C@H](N)C(=O)O
# Columns and labels:
# Settings in all cases: in vitro
# Histoplasma capsulatum = test system: Histoplasma capsulatum
# C. parapsilosis = test system: C. parapsilosis
# Cryptococcus neoformans = test system: Cryptococcus neoformans
# A. fumigatus = test system: A. fumigatus
# C. albicans = test system: C. albicans
Structure (SMILES),Minimal Inhibitory Concentration MIC Histoplasma capsulatum (Histoplasma capsulatum),Minimal Inhibitory Concentration MIC C. parapsilosis (C. parapsilosis),Minimal Inhibitory Concentration MIC Cryptococcus neoformans (Cryptococcus neoformans),Minimal Inhibitory Concentration MIC A. fumigatus (A. fumigatus),Minimal Inhibitory Concentration MIC C. albicans (C. albicans)
"C[C@@H]1[C@H](O)[C@@H](C)/C=C/C=C/C=C/C=C/C=C/C=C/C=C/[C@H](O[C@@H]2O[C@H](C)[C@@H](O)[C@H](N)[C@@H]2O)C[C@@H]2O[C@](O)(C[C@@H](O)C[C@@H](O)[C@H](O)CC[C@@H](O)C[C@@H](O)CC(=O)O[C@H]1C)C[C@H](O)[C@H]2C(=O)O [Ampho B, Amphotericin B, reference compound]",0.039 µg/mL,0.038 µg/mL,0.039 µg/mL,0.312 µg/mL,0.078 µg/mL
"CCCCCOc1ccc(-c2ccc(-c3ccc(C(=O)N[C@H]4CCCNC(=O)[C@@H]5[C@@H](O)[C@@H](C)CN5C(=O)[C@H](C(C)O)NC(=O)[C@H]([C@H](O)Cc5ccc(O)cc5)NC(=O)[C@@H]5C[C@@H](O)CN5C(=O)[C@H](C(C)C)NC4=O)cc3)cc2)cc1 (stereo partly drawn) [Compound E4-6] ({pTerphenylCO(4''-OnC5H11)}-[Orn]V[Hyp][hTyr(3R-OH)][Thr(3ξ)][Pro(3S-OH,4S-Me)]; lactam 1-C)",>20 µg/mL,>20 µg/mL,–,>20 µg/mL,1.25 µg/mL
"CCCCCOc1ccc(-c2ccc(-c3ccc(C(=O)N[C@H]4CCCNC(=O)[C@@H]5[C@@H](O)[C@@H](C)CN5C(=O)[C@H](C(C)O)NC(=O)[C@H]([C@H](O)Cc5ccc(O)cc5)NC(=O)[C@@H]5C[C@@H](O)CN5C(=O)[C@H](Cc5ccc(O)cc5)NC4=O)cc3)cc2)cc1 (stereo partly drawn) [Compound E5-7] ({pTerphenylCO(4''-OnC5H11)}-[Orn]Y[Hyp][hTyr(3R-OH)][Thr(3ξ)][Pro(3S-OH,4S-Me)]; lactam 1-C)",>20 µg/mL,>20 µg/mL,–,>20 µg/mL,>20 µg/mL
CCCCCOc1ccc(-c2ccc(-c3ccc(C(=O)N[C@H]4CNC(=N)NC(=O)[C@@H]5[C@@H](O)[C@@H](C)CN5C(=O)[C@H](C(C)O)NC(=O)[C@H]([C@H](O)Cc5ccc(O)cc5)NC(=O)[C@@H]5C[C@@H](O)CN5C(=O)[C@H](C(C)O)NC4=O)cc3)cc2)cc1 (some centres unmarked) [Compound E6-6],>20 µg/mL,>20 µg/mL,–,>20 µg/mL,0.078 µg/mL
CCCCCOc1ccc(-c2ccc(-c3ccc(C(=O)N[C@H]4CCNNC(=O)[C@@H]5[C@@H](O)[C@@H](C)CN5C(=O)[C@H](C(C)O)NC(=O)[C@H]([C@H](O)Cc5ccc(O)cc5)NC(=O)[C@@H]5C[C@@H](O)CN5C(=O)[C@H](C(C)O)NC4=O)cc3)cc2)cc1 (some centres unmarked) [E2-10(b)],0.156 µg/mL,0.156 µg/mL,–,0.156 µg/mL,0.01 µg/mL
CCCCCOc1ccc(-c2ccc(-c3ccc(C(=O)N[C@H]4CCN(CC)NC(=O)[C@@H]5[C@@H](O)[C@@H](C)CN5C(=O)[C@H](C(C)O)NC(=O)[C@H]([C@H](O)Cc5ccc(O)cc5)NC(=O)[C@@H]5C[C@@H](O)CN5C(=O)[C@H](C(C)O)NC4=O)cc3)cc2)cc1 (some centres unmarked) [E2-11(b)],0.02 µg/mL,0.156 µg/mL,–,0.312 µg/mL,0.001 µg/mL
CCCCCOc1ccc(-c2ccc(-c3ccc(C(=O)N[C@H]4CCN(CCC)NC(=O)[C@@H]5[C@@H](O)[C@@H](C)CN5C(=O)[C@H](C(C)O)NC(=O)[C@H]([C@H](O)Cc5ccc(O)cc5)NC(=O)[C@@H]5C[C@@H](O)CN5C(=O)[C@H](C(C)O)NC4=O)cc3)cc2)cc1 (some centres unmarked) [E2-11(c)],0.312 µg/mL,1.25 µg/mL,–,0.156 µg/mL,0.312 µg/mL
